Earlier results as cited in patent US20050074468A1, “Topical compositions containing nonimmunosuppressive cyclosporin derivatives for treating hair loss” (priority 2001, published 2005).

Test system: mouse's back
Conditions: relative to minoxidil

Substance: Cyclosporin A
- hair regrowth effect superior to minoxidil: about 100 times
